Experiments:
[1] = test system: integrin β5 localization in PA-JEB/β4 keratinocytes; test: Immunofluorescence: integrin β5 clustering in FAs/FCLs, PA-JEB/β4; format: cell-based, human
Excerpt: Fig. 3. Serine 759 and 762 are involved in regulating the localization of integrin β5. (A–C) Integrin β5 containing S759/762E or S759/762A mutations (A) were expressed in β5-deficient PA-JEB/β4 keratinocytes and the subcellular distribution of β5 was compared to β5-deficient keratinocytes expressing wild-type (WT) β5. Merged images show integrin β5 (green), vinculin (B) or clathrin (C) (red), actin (blue) and the cell nuclei (cyan). (D,E) Analysis of wild-type versus mutant integrin β5 clustering in FAs or FCLs. (F–I) PA-JEB/β4 keratinocytes were grown in 10% FCS-supplemented DMEM culture medium overnight and then treated with 5 nM calyculin A (Cal.A) or DMSO (vehicle control) for 30 min prior to fixation. Merged images show integrin β5 (green), vinculin (F) or clathrin (H) (red), actin (blue) and the cell nuclei (cyan), quantifications of β5 clustering in FAs or FCLs are shown in G,I. (J,K) Analysis of integrin β5 clustering in FAs or FCLs in PA-JEB keratinocytes after treatment with Cal.A. Representative confocal microscopy images are shown in Fig. S3. Scale bars: 20 μm. Data were obtained from three independent experiments. Total cells analyzed per condition: 109 (WT), 116 (S>E), 103 (S>A) (D), 81 (WT), 77 (S>E), 101 (S>A) (E), 126 and 123 (G), 111 and 101 (I), 106 and 102 (J), 115 and 109 (K). ****P<0.0001 (Mann–Whitney U-test). Box plots range from the 25th to 75th percentile; central line indicates the median; whiskers show smallest to largest value.
PA-JEB/β4 keratinocytes were seeded on glass coverslips and cultured in complete KGM medium for 24 h, and then treated with DMEM plus 10% FCS for 24 h. Other cell lines were seeded on glass coverslips and cultured in DMEM plus 10% FCS. Cells were fixed with 2% paraformaldehyde (PFA) for 10 min, permeabilized with 0.2% Triton X-100 for 5 min, and blocked with PBS containing 2% bovine serum albumin (BSA; Sigma) for at least 30 min. Next, cells were incubated with the primary antibodies for 1 h at room temperature. Cells were washed three times before incubation with the secondary antibodies for 1 h. Additionally, nuclei were stained with DAPI, and filamentous actin was visualized using Alexa Fluor 488 or 647-conjugated phalloidin (Invitrogen). After three washing steps with PBS, the coverslips were mounted onto glass slides in Mowiol. Images were obtained using a Leica TCS SP5 confocal microscope with a 63× (NA 1.4) oil objective.
Image analysis was performed using Fiji (ImageJ) ([Schindelin et al., 2012]; [Schneider et al., 2012]). To quantify integrin clustering in FAs (based on vinculin staining) versus FCLs (clathrin staining), background was subtracted in both channels using a bilateral filter and the region of interest (ROI) was selected at the cell periphery. Colocalization of integrin clusters and FAs or FCLs was determined using the Image Calculator (command ‘multiply’) on both channels and calculating the area of overlapping clusters as a percentage of the total integrin cluster area per cell using the Analyze Particle function.

[2] = test system: β5 Ser-759/762 phosphorylation; test: Mass spectrometry of β5 immunoprecipitates: β5 phosphorylation; format: cell-based, human
Excerpt: Journal of Cell Science | Peer review history […]
opinion most interesting findings linked to the serine/threonine phosphorylation sites.
Response: We have now changed the t itle and abstract to better emphasize the interesting and novel findings (page 1 -2).
Reviewer 2 Comments for the author...
There are some points that the authors may want to consider: […]
only very limited binding to kindlin-1/2. Furthermore, the phosphomimetic β5-S759/762E mutant promotes localization in FCLs. In the BirA experiments, the authors detect no biotinylation of clathrin adaptors ARH and NUMB with the b5/b1 or b5/b1 chimeras, in contrast to the b5 wt. Is this also the case for clathrin or AP2-mu, established components of FCL?
Response: We thank the reviewer for his/her useful remark. […]
The peptide pull-downs in figure 2 are a little problematic given the high Bg binding of NUMB and ARH to the b1 scr peptide. […] In addition, quantifications from several biological repeats of the pulldowns might help t o establish the reproducibility and statistical significance of the differences indicated by the authors in the text. […]
Figure 3. […] Specifically, we assessed whether phosphorylation of […]
of β5 at S759 and S762 could be detected (discussed in the middle of page 13).
Figure 4. is there a reason for using talin rather than vinculin staining as a FA marker here? […] Could this be analysed and mentioned in the text? […]

COC[C@@H]([C@H](O)[C@H](O)C(=O)NCC[C@H](C)c1nc(/C=C/C[C@@H]2O[C@]3(C[C@@H](O)[C@@H]2C)O[C@H]([C@H](C[C@H](O)[C@H](C)[C@H](O)[C@H](C)/C=C(C)/C(C)=C/C=C/C(C)=C\C#N)OC)[C@H](OP(=O)(O)O)C3(C)C)co1)N(C)C [calyculin A]
localization of integrin β5 in FAs, PA-JEB/β4 ([1]; 5 nM calyculin A versus DMSO, 30 min, 10% FCS DMEM, colocalization with vinculin, three independent experiments): decreased the localization of integrin β5 in FAs
redistribution of the integrin ([1]; calyculin A treatment, summary in discussion): only led to a minor redistribution of the integrin
detection of β5 phosphorylation at S759 and S762 ([2]; 25 nM calyculin for 20 min, PA-JEB/β4 keratinocytes, anti-β5 immunoprecipitation, MS/MS): no phosphorylation
detection of β5 phosphorylation at Ser-759/762 ([2]; calyculin A-treated cells, mass spectrometry of β5 immunoprecipitates): unsuccessful

Source: publication PMC9234671, “Molecular determinants of αVβ5 localization in flat clathrin lattices – role of αVβ5 in cell adhesion and proliferation” (Journal of Cell Science, 2022)
